ChEMBL document CHEMBL4507267 (2021)

How the values were obtained:
[1] = target: Serine/threonine-protein kinase PLK1 (Homo sapiens) (UniProt P53350); details: Compound concentration 1000.0 nM
[2] = target: Mitogen-activated protein kinase kinase kinase 5 (Homo sapiens) (UniProt Q99683); details: Compound concentration 1000.0 nM
[3] = target: Sodium-dependent serotonin transporter (Homo sapiens) (UniProt P31645); details: Compound concentration 10.0 uM
[4] = target: Serine/threonine-protein kinase RIO3 (Homo sapiens) (UniProt O14730); details: Compound concentration 1000.0 nM
[5] = target: Non-receptor tyrosine-protein kinase TNK1 (Homo sapiens) (UniProt Q13470); details: Compound concentration 1000.0 nM
[6] = target: Protein kinase C iota type (Homo sapiens) (UniProt P41743); details: Compound concentration 1000.0 nM
[7] = target: Serine/threonine-protein kinase Sgk2 (Homo sapiens) (UniProt Q9HBY8); details: Compound concentration 1000.0 nM
[8] = tested on: Epidermal growth factor receptor (Homo sapiens), P00533 [UNDEFINED MUTATION]; details: Compound concentration 1000.0 nM
[9] = target: Interferon-induced, double-stranded RNA-activated protein kinase (Homo sapiens) (UniProt P19525); details: Compound concentration 1000.0 nM
[10] = target: Serine/threonine-protein kinase Chk2 (Homo sapiens) (UniProt O96017); details: Compound concentration 1000.0 nM
[11] = target: Transient receptor potential cation channel subfamily M member 6 (Homo sapiens) (UniProt Q9BX84); details: Compound concentration 1000.0 nM
[12] = target: Tyrosine-protein kinase ZAP-70 (Homo sapiens) (UniProt P43403); details: Compound concentration 1000.0 nM
[13] = tested on: Tyrosine-protein kinase ABL1 (Homo sapiens), P00519 [E255K]; details: Compound concentration 1000.0 nM
[14] = target: Serine/threonine-protein kinase 38-like (Homo sapiens) (UniProt Q9Y2H1); details: Compound concentration 1000.0 nM
[15] = target: MAP kinase-activated protein kinase 2 (Homo sapiens) (UniProt P49137); details: Compound concentration 1000.0 nM
[16] = target: NUAK family SNF1-like kinase 2 (Homo sapiens) (UniProt Q9H093); details: Compound concentration 1000.0 nM
[17] = target: Serine/threonine-protein kinase BRSK2 (Homo sapiens) (UniProt Q8IWQ3); details: Compound concentration 1000.0 nM
[18] = target: Death-associated protein kinase 2 (Homo sapiens) (UniProt Q9UIK4); details: Compound concentration 1000.0 nM
[19] = target: Ribosomal protein S6 kinase alpha-4 (Homo sapiens) (UniProt O75676); details: Compound concentration 1000.0 nM
[20] = target: Serine/threonine-protein kinase Nek5 (Homo sapiens) (UniProt Q6P3R8); details: Compound concentration 1000.0 nM
[21] = target: Serine/threonine-protein kinase Sgk3 (Homo sapiens) (UniProt Q96BR1); details: Compound concentration 1000.0 nM
[22] = target: Mast/stem cell growth factor receptor Kit (Homo sapiens) (UniProt P10721); details: Compound concentration 1000.0 nM
[23] = target: Serine/threonine-protein kinase MARK1 (Homo sapiens) (UniProt Q9P0L2); details: Compound concentration 1000.0 nM
[24] = target: Serine/threonine-protein kinase RIO2 (Homo sapiens) (UniProt Q9BVS4); details: Compound concentration 1000.0 nM
[25] = target: Mitogen-activated protein kinase kinase kinase kinase 5 (Homo sapiens) (UniProt Q9Y4K4); details: Compound concentration 1000.0 nM
[26] = target: Aurora kinase A (Homo sapiens) (UniProt O14965); details: Compound concentration 1000.0 nM
[27] = target: Cyclin-dependent kinase-like 5 (Homo sapiens) (UniProt O76039); details: Compound concentration 1000.0 nM
[28] = target: Dual specificity tyrosine-phosphorylation-regulated kinase 1B (Homo sapiens) (UniProt Q9Y463); details: Compound concentration 1000.0 nM
[29] = target: cAMP-dependent protein kinase catalytic subunit beta (Homo sapiens) (UniProt P22694); details: Compound concentration 1000.0 nM
[30] = target: Mitogen-activated protein kinase kinase kinase 7 (Homo sapiens) (UniProt O43318); details: Compound concentration 1000.0 nM
[31] = target: Ribosomal protein S6 kinase alpha-6 (Homo sapiens) (UniProt Q9UK32); details: Compound concentration 1000.0 nM
[32] = tested on: Leucine-rich repeat serine/threonine-protein kinase 2 (Homo sapiens), Q5S007 [G2019S]; details: Compound concentration 1000.0 nM
[33] = target: 5-hydroxytryptamine receptor 1E (Homo sapiens) (UniProt P28566); details: Compound concentration 10.0 uM
[34] = target: Muscarinic acetylcholine receptor M3 (Homo sapiens) (UniProt P20309); details: Compound concentration 10.0 uM
[35] = target: Serine/threonine-protein kinase PLK3 (Homo sapiens) (UniProt Q9H4B4); details: Compound concentration 1000.0 nM
[36] = target: Mitogen-activated protein kinase 7 (Homo sapiens) (UniProt Q13164); details: Compound concentration 1000.0 nM
[37] = target: Death-associated protein kinase 1 (Homo sapiens) (UniProt P53355); details: Compound concentration 1000.0 nM
[38] = target: Serine/threonine-protein kinase TAO2 (Homo sapiens) (UniProt Q9UL54); details: Compound concentration 1000.0 nM
[39] = target: Cyclin-dependent kinase 11B (Homo sapiens) (UniProt P21127); details: Compound concentration 1000.0 nM
[40] = target: Rho-associated protein kinase 1 (Homo sapiens) (UniProt Q13464); details: Compound concentration 1000.0 nM
[41] = target: Ephrin type-A receptor 6 (Homo sapiens) (UniProt Q9UF33); details: Compound concentration 1000.0 nM
[42] = target: SRSF protein kinase 1 (Homo sapiens) (UniProt Q96SB4); details: Compound concentration 1000.0 nM
[43] = target: Dual specificity tyrosine-phosphorylation-regulated kinase 1A (Homo sapiens) (UniProt Q13627); details: Compound concentration 1000.0 nM
[44] = target: Dual specificity protein kinase CLK2 (Homo sapiens) (UniProt P49760); details: Compound concentration 1000.0 nM
[45] = target: Serine/threonine-protein kinase tousled-like 1 (Homo sapiens) (UniProt Q9UKI8); details: Compound concentration 1000.0 nM

Muscarinic acetylcholine receptor M3 (Homo sapiens), sequence (P20309 whole entry, looked up): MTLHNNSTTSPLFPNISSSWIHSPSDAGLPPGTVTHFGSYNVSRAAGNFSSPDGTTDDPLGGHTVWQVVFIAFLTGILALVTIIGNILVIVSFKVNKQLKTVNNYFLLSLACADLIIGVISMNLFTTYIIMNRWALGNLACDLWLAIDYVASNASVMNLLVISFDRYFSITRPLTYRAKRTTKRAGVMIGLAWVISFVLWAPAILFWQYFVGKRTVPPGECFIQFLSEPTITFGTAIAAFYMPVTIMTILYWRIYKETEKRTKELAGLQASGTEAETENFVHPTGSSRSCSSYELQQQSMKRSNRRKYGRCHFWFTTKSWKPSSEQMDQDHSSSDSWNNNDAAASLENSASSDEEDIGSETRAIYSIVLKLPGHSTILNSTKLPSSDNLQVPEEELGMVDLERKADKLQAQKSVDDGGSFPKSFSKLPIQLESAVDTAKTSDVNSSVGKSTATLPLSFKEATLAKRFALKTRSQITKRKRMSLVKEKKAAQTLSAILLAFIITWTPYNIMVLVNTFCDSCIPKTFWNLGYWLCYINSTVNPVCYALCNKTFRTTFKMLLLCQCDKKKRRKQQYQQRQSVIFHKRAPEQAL
Dual specificity tyrosine-phosphorylation-regulated kinase 1B (Homo sapiens), sequence (Q9Y463 whole entry, looked up): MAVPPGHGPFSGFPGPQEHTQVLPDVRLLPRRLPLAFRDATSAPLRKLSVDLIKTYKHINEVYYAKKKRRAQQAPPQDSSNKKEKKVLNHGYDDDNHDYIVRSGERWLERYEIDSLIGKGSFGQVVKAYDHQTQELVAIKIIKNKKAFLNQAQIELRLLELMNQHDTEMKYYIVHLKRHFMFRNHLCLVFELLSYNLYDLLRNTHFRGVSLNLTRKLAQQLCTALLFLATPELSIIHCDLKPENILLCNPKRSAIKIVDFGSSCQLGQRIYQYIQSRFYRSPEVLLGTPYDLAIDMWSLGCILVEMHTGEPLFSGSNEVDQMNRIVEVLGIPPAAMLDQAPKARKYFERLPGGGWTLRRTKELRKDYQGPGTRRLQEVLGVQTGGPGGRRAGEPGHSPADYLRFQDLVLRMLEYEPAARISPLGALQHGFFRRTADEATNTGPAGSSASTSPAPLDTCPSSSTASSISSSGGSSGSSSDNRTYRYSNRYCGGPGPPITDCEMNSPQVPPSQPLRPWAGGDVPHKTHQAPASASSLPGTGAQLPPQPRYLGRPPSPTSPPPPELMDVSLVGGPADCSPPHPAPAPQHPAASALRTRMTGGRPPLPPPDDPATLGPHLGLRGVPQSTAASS
Death-associated protein kinase 1 (Homo sapiens), sequence (P53355 whole entry, looked up): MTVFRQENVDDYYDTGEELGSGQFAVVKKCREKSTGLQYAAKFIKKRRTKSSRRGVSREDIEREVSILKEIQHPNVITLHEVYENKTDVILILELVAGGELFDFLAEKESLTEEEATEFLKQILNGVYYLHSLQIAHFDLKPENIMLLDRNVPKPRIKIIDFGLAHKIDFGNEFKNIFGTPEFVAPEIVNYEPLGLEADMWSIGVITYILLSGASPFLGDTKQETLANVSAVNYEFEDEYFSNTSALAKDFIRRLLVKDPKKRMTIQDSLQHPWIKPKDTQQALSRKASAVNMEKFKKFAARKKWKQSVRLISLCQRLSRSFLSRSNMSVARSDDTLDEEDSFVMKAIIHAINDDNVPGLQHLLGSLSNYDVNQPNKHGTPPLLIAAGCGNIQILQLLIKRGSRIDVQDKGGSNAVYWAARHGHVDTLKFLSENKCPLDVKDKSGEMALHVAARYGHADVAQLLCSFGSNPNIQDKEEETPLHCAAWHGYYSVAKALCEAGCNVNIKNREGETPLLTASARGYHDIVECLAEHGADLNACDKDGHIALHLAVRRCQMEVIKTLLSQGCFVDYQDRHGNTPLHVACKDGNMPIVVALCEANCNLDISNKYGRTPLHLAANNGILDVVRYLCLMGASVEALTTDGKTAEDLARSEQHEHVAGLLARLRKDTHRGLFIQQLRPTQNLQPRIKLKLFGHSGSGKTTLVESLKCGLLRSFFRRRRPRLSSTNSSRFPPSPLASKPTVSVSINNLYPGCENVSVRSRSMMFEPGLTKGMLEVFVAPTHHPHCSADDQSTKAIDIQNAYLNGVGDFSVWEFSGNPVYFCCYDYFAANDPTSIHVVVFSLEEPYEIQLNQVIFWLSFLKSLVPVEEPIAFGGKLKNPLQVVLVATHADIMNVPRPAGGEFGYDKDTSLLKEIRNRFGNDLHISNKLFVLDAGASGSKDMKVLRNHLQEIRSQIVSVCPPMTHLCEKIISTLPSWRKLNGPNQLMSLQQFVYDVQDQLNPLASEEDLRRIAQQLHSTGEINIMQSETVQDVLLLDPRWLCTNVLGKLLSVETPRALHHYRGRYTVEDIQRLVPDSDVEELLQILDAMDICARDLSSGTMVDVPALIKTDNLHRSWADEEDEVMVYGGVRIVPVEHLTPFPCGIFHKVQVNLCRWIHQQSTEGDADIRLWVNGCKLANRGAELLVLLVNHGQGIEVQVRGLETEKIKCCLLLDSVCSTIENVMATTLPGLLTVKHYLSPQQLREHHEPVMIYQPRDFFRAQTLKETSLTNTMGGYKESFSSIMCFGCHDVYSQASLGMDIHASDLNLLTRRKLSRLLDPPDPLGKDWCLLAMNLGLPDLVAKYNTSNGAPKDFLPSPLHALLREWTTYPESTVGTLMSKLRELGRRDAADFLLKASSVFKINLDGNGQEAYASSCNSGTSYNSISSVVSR
5-hydroxytryptamine receptor 1E (Homo sapiens), sequence (P28566 whole entry): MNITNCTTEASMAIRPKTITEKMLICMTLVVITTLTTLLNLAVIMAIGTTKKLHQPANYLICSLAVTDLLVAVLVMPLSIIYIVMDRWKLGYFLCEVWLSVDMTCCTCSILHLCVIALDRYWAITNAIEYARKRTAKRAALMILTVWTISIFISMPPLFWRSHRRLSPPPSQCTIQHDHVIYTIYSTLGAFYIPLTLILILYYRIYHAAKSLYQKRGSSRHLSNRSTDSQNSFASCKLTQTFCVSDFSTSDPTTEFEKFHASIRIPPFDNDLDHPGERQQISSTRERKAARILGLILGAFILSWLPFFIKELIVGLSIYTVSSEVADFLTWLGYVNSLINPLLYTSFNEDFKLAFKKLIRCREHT
Serine/threonine-protein kinase Chk2 (Homo sapiens), sequence (O96017 whole entry): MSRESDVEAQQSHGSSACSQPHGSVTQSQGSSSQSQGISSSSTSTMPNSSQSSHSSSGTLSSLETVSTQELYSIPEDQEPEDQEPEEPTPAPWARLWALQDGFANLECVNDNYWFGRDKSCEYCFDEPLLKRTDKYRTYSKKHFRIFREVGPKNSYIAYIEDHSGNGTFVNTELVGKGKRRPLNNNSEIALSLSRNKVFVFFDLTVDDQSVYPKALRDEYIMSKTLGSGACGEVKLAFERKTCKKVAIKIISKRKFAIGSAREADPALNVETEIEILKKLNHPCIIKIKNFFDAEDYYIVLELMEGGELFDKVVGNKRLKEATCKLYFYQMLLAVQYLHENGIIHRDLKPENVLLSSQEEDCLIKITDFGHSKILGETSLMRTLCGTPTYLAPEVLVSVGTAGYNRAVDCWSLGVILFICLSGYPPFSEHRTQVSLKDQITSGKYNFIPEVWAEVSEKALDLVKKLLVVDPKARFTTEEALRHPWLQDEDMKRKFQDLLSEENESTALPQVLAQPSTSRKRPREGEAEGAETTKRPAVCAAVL
Serine/threonine-protein kinase RIO2 (Homo sapiens), sequence (Q9BVS4 whole entry, looked up): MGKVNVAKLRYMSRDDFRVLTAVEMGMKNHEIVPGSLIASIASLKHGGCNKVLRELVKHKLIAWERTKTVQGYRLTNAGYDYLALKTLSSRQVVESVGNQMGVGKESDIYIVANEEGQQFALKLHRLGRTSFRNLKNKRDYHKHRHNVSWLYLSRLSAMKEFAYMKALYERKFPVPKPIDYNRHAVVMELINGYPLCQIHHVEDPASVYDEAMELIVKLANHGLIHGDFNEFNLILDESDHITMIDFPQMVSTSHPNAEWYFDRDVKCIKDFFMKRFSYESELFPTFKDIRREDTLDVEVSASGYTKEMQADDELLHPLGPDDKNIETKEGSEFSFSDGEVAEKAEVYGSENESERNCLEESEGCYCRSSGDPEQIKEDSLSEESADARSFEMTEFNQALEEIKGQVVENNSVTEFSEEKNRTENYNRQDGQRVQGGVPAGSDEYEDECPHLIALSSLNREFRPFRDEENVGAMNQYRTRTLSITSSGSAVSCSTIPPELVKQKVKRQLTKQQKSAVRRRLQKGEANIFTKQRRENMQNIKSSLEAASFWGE
Mitogen-activated protein kinase 7 (Homo sapiens), sequence (Q13164 2-816 limits assumed): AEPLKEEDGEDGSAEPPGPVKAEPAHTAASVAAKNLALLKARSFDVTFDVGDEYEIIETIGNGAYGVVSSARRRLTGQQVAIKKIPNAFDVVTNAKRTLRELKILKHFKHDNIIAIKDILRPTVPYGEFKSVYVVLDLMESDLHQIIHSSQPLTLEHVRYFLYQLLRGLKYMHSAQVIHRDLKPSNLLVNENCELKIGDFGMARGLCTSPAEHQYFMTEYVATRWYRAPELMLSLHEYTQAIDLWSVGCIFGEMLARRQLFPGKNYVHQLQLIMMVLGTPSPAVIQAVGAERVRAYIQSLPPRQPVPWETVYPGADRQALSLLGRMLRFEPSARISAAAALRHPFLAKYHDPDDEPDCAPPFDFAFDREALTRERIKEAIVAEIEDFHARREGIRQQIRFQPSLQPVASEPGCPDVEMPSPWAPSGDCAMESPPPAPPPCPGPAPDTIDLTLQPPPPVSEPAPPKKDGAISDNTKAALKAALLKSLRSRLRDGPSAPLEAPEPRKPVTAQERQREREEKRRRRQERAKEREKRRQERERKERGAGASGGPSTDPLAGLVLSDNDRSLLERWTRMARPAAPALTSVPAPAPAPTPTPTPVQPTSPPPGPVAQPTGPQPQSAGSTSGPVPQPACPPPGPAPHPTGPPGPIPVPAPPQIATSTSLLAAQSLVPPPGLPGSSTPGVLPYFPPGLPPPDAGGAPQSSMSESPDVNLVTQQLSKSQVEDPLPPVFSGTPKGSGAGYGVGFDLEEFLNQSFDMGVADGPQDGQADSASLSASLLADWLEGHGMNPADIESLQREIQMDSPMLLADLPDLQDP

Cc1c(NC(=O)c2cc(C(N)=O)nc3cc(F)ccc23)c(C(F)(F)F)nn1Cc1ccc(C#N)cc1 [BAY-876]
inactive: residual activity [1] 88% | residual activity [2] 91% | inhibition [3] 0.483% | residual activity [4] 75% | residual activity [5] 81% | residual activity [6] 84% | residual activity [7] 80% | residual activity [8] 79% | residual activity [9] 100% | residual activity [10] 73% | residual activity [11] 87% | residual activity [12] 84% | residual activity [13] 76% | residual activity [14] 100% | residual activity [15] 97% | residual activity [16] 83% | residual activity [17] 100% | residual activity [18] 99% | residual activity [19] 85% | residual activity [20] 100% | residual activity [21] 83% | residual activity [22] 95% | residual activity [23] 100% | residual activity [24] 76% | residual activity [25] 74% | residual activity [26] 89% | residual activity [27] 77% | residual activity [28] 87% | residual activity [29] 93% | residual activity [30] 68% | residual activity [31] 66% | residual activity [32] 100% | inhibition [33] 4% | inhibition [34] -6.5% | residual activity [35] 84% | residual activity [36] 95% | residual activity [37] 86% | residual activity [38] 85% | residual activity [39] 94% | residual activity [40] 97% | residual activity [41] 87% | residual activity [42] 83% | residual activity [43] 84% | residual activity [44] 89% | residual activity [45] 79%

Cc1c(NC(=O)c2cc(C(N)=O)nc3cc(F)ccc23)c(C(F)(F)F)nn1Cc1ccc(C(C)(C)C)cc1 [BAY-588]
inactive: residual activity [1] 99% | residual activity [2] 100% | inhibition [3] -3.13% | residual activity [4] 97% | residual activity [5] 100% | residual activity [6] 98% | residual activity [7] 100% | residual activity [8] 75% | residual activity [9] 100% | residual activity [10] 99% | residual activity [11] 100% | residual activity [12] 100% | residual activity [13] 100% | residual activity [14] 89% | residual activity [15] 100% | residual activity [16] 100% | residual activity [17] 100% | residual activity [18] 76% | residual activity [19] 100% | residual activity [20] 100% | residual activity [21] 94% | residual activity [22] 99% | residual activity [23] 100% | residual activity [24] 76% | residual activity [25] 92% | residual activity [26] 100% | residual activity [27] 100% | residual activity [28] 81% | residual activity [29] 100% | residual activity [30] 100% | residual activity [31] 100% | residual activity [32] 100% | inhibition [33] 7.98% | inhibition [34] 1.86% | residual activity [35] 94% | residual activity [36] 100% | residual activity [37] 100% | residual activity [38] 100% | residual activity [39] 100% | residual activity [40] 100% | residual activity [41] 100% | residual activity [42] 100% | residual activity [43] 100% | residual activity [44] 76% | residual activity [45] 100%
